Results as given in ChEMBL document CHEMBL3632556, “Synthesis and biological evaluation of new C-10 substituted dithranol pleiotropic hybrids” (Bioorg Med Chem, 2015).

Tests used:
[1] = Drug degradation in DMSO up to 48 hrs; format: physicochemical
[2] = Cytotoxicity against human HaCaT cells assessed as cell survival at 0.01 uM after 48 hrs by MTT assay (reference value: 100%); format: cell-based; conditions: read-out: Survival
[3] = test system: Rattus norvegicus; assay: Anti-inflammatory activity in Fisher 344 rat assessed as inhibition of carrageenan-induced paw edema at 0.01 mmol/kg, ip after 3.5 hrs; format: functional; conditions: Fisher 344, ip
[4] = Antioxidant activity assessed as increase of DPPH free radical scavenging activity by measuring reducing activity at 100 uM after 60 mins by spectrophotometry; format: physicochemical; conditions: 1 h
[5] = Cytotoxicity against human HaCaT cells assessed as cell survival at 0.1 uM after 48 hrs by MTT assay (reference value: 96.75 +/- 1.77%); format: cell-based; conditions: read-out: Survival
[6] = Inhibition of soybean LOX assessed as reduction in conversion of sodium linoleate to 13-hydroperoxylinoleic acid by UV analysis; parameters: species or system Glycine max
[7] = Cytotoxicity against human HaCaT cells assessed as cell survival at 1 uM after 48 hrs by MTT assay (reference value: 97.50 +/- 0.71%); format: cell-based; conditions: read-out: Survival
[8] = Antioxidant activity assessed as DPPH free radical scavenging activity by measuring reducing activity at 100 uM after 20 mins by spectrophotometry; format: physicochemical; parameters: scale not given: the % may be the effect or the level left
[9] = test system: Rattus norvegicus; assay: Acute toxicity in Fisher 344 rat up to 0.1 mmol/kg, ip; format: organism-based; conditions: in vivo
[10] = Cytotoxicity against human HaCaT cells assessed as cell survival at 100 uM after 48 hrs by MTT assay (reference value: 88.07 +/- 9.81%); format: cell-based; conditions: read-out: Survival
[11] = test system: HaCaT; assay: Antiproliferative activity against human HaCaT cells after 24 hrs by MTT assay; format: functional, cell-based
[12] = Cytotoxicity against human HaCaT cells assessed as cell survival at 10 uM after 48 hrs by MTT assay (reference value: 95.75 +/- 2.47%); format: cell-based; conditions: read-out: Survival
[13] = Antioxidant activity assessed as inhibition of AAPH-induced linoleic acid lipid peroxidation at 100 uM; format: physicochemical
[14] = test system: Glycine max; assay: Inhibition of soybean LOX assessed as reduction in conversion of sodium linoleate to 13-hydroperoxylinoleic acid at 100 uM by UV analysis
[15] = Lipophilicity, RM of the compound by RP-TLC method; format: physicochemical
[16] = Drug metabolism in DMSO assessed as formation of oxidative product danthron at 1 mM after 2 days by HPLC analysis; format: physicochemical; conditions: 48 h, 1000 µM
[17] = Chemical stability in DMSO assessed as compound degradation at 1 mM after 5 days by HPLC analysis; format: physicochemical; conditions: 120 h, 1000 µM
[18] = test system: HaCaT; assay: Antiproliferative activity against human HaCaT cells; format: functional, cell-based

Stability [1] | SMILES | viability at 48 h, 0.01 µM [2] [%] | inhibition in vivo at 10 µmol/kg [3] [%] | Activity [4] | viability at 48 h, 0.1 µM [5] [%] | IC50 ([6]; read-out: IC50) [µM] | viability at 48 h, 1 µM [7] [%] | Activity [8] | Activity [9] | viability at 48 h, 100 µM [10] [%] | IC50 [11] [µM] | viability at 48 h, 10 µM [12] [%] | inhibition (INH) [13] | inhibition [14] [%] | Rm [15] | IC50 [6] | Stability [16] | Stability [17] | IC50 [18] [µM]
Unstable | O=C1c2cccc(Cl)c2Cc2c(Cl)cccc21 | – | – | – | – | – | – | – | – | – | – | – | – | – | – | – | – | – | –
– | O=C(O)CC1c2cccc(O)c2C(=O)c2c(O)cccc21 | 87.1 | 13 | Active | 58 | 50 | 60.4 | 25% | Non-toxic | 41.2 | 1.9 | 42 | 20% | – | – | – | – | – | –
– | NCCCCN(CCCN)C(=O)CC1c2cccc(O)c2C(=O)c2c(O)cccc21.O=C(O)C(F)(F)F.O=C(O)C(F)(F)F | – | – | Not Active | – | – | – | 48% | Non-toxic | – | – | – | 74% | 26 | – | – | – | – | –
– | O=C(CC1c2cccc(O)c2C(=O)c2c(O)cccc21)NCc1ccccc1 | – | 35 | Active | – | 7.9 | – | 20% | Non-toxic | – | – | – | 66% | – | 0.66 | – | – | – | –
– | COc1ccc2c(c1)c(CC(=O)O)c(C)n2C(=O)c1ccc(Cl)cc1 [INDOMETHACIN] | – | 47 | – | – | – | – | – | – | – | – | – | – | – | – | – | – | – | –
– | CC(Cc1ccc(O)c(O)c1)C(C)Cc1ccc(O)c(O)c1 (stereo unspecified) [NORDIHYDROGUAIARETIC ACID] | – | – | Not Active | – | – | – | 81% | – | – | – | – | – | – | – | – | – | – | –
– | NCCc1ccc(O)c(O)c1 [DOPAMINE] | – | 13 | Not Active | – | 100 | – | 86% | – | – | – | – | 43% | – | – | – | – | – | –
– | CCCCCCCCCCCCNC(=O)CC1c2cccc(O)c2C(=O)c2c(O)cccc21 | 55.9 | – | Not Active | 37.7 | – | 14.6 | 98% | Non-toxic | 1.22 | 0.022 | 7.79 | 74% | 32 | – | – | – | – | –
– | COc1ccc(CNC(=O)CC2c3cccc(O)c3C(=O)c3c(O)cccc32)c(OC)c1 | 92.3 | – | Not Active | 134 | 50 | 135 | 87% | Non-toxic | 0.05 | 10 | 8.42 | 81% | – | – | – | – | – | –
– | NCCCNCCCCNCCCN [SPERMINE] | – | – | Not Active | – | – | – | 4% | – | – | – | – | Not Active | – | – | Not Active | – | – | –
– | COc1ccc(C(NC(=O)CC2c3cccc(O)c3C(=O)c3c(O)cccc32)c2ccc(OC)cc2)cc1 | 79.8 | 79.7 | Active | 44 | 7 | 38 | 86% | Non-toxic | 9.65 | 0.56 | 20.3 | 95% | – | 0.66 | – | Stable | Stable | –
– | O=C1c2c(O)cccc2Cc2cccc(O)c21 [ANTHRALIN] | 94.5 | 42 | Active | 87.8 | – | 48.1 | 31% | Non-toxic | 1.7 | 0.945 | 5.23 | 28% | – | 0.7 | Not Active | – | – | 0.7
– | COc1ccc(C(NC(C)=O)c2ccc(OC)cc2)cc1 | – | 45 | Not Active | – | 100 | – | Not Active | Non-toxic | – | – | – | 94% | – | – | – | – | – | –
– | CC(C)(C)OC(=O)NCCCN(CCCCN(CCCNC(=O)CC1c2cccc(O)c2C(=O)c2c(O)cccc21)C(=O)OC(C)(C)C)C(=O)OC(C)(C)C | – | – | Not Active | – | – | – | 29% | Non-toxic | – | – | – | 93% | – | – | Not Active | – | – | –
– | NCCCCNCCCN [SPERMIDINE] | – | – | Not Active | – | – | – | Not Active | – | – | – | – | Not Active | – | – | Not Active | – | – | –
– | COc1ccc(CNC(=O)CC2c3cccc(O)c3C(=O)c3c(O)cccc32)cc1OC | 18.5 | – | Not Active | 13.3 | 61.5 | 12.3 | 61% | Non-toxic | 0 | – | 3 | 65% | – | – | – | – | – | –
– | CCCCNC(=O)CC1c2cccc(O)c2C(=O)c2c(O)cccc21 | 87.2 | 35 | Active | 83.7 | 10 | 80.9 | 31% | Non-toxic | 13.7 | 5.4 | 24.4 | 59% | – | 0.05 | – | – | – | –
– | NCCCNCCCCNCCCNC(=O)CC1c2cccc(O)c2C(=O)c2c(O)cccc21.O=C(O)C(F)(F)F.O=C(O)C(F)(F)F.O=C(O)C(F)(F)F | – | – | Not Active | – | – | – | 93% | Non-toxic | – | – | – | 87% | – | – | Not Active | – | – | –
– | CC(C)(C)OC(=O)NCCCCNC(=O)CC1c2cccc(O)c2C(=O)c2c(O)cccc21 | – | – | Not Active | – | – | – | 33% | Non-toxic | – | – | – | 62% | 46 | – | – | – | – | –
– | NCCCCNC(=O)CC1c2cccc(O)c2C(=O)c2c(O)cccc21.O=C(O)C(F)(F)F | – | – | Not Active | – | – | – | 65% | Non-toxic | – | – | – | 91% | 35 | 0.63 | – | – | – | –
– | O=C(CC1c2cccc(O)c2C(=O)c2c(O)cccc21)NCCc1ccc(O)c(O)c1 | 91.1 | – | Not Active | 114 | – | 112 | 32% | Non-toxic | 2.98 | 100 | 128 | 5% | 42 | – | – | – | – | –
– | CC(C)(C)OC(=O)CC1c2cccc(O)c2C(=O)c2c(O)cccc21 | – | – | Active | – | – | – | 9% | Non-toxic | – | – | – | 79% | – | – | Not Active | – | – | –
– | Cc1c(C)c2c(c(C)c1O)CCC(C)(C(=O)O)O2 (stereo unspecified) [TROLOX] | – | – | – | – | – | – | – | – | – | – | – | 63% | – | – | – | – | – | –
– | CCOC(=O)CC1c2cccc(O)c2C(=O)c2c(O)cccc21 | 47 | – | Active | 53.4 | 44.5 | 49.9 | 31% | Non-toxic | 6.5 | 0.357 | 28.8 | 14% | – | 0.63 | – | – | – | –
